# According to patent US20240116986A1, “FUSION PEPTIDES CONTAINING DIMERIC ALPHA-HELICES, PEPTIDE-MOLECULARCONJUGATES CONTAINING THE SAME AND NUCLEIC ACID DELIVERY COMPOSITIONSCONTAINING THE SAME” (Artprobio Co., Ltd., priority 2022, published 2024):
# How the values were obtained:
# EGFP mRNA = test: EMSA of nanostructure formation with EGFP mRNA; format: binding; conditions: EMSA; mRNA concentration fixed; incubated overnight
# Protocol: (§1) When a nanostructure was formed through self-assembly by reacting a peptide-molecule conjugate (SAB) with a nucleic acid material (dsDNA or mRNA), agarose gel EMSA was conducted to measure their interactions, binding ratio, stability, etc.
# First, the nucleic acid material of a fixed concentration (100 fmol mRNA) was reacted with the peptide-molecule conjugate (SAB) of various concentrations. Immediately before mixing with the nucleic acid material, the peptide-molecule conjugate (SAB) was sonicated for 5 minutes to prevent self-aggregation. The sonicated peptide-molecule conjugate (SAB, 5 μL) was added to the nucleic acid material ([…]) and a nanostructure was prepared by adding distilled water. The sample was prepared by snap cooling. Specifically, after heating at 70° C. for 10 minutes and snap-cooling on ice, the prepared sample was stored at room temperature. The stored sample was mixed with 2 μL of 60% glycerol. Electrophoresis was performed at 100 V for 60 minutes on 0.8% agarose gel using 1×TBE. The band was observed after staining with SYBR™ Gold nucleic acid gel stain (Invitrogen, Waltham, USA).
# After sonicating the peptide-molecule conjugate (SAB-gn, n=1 to 6) aqueous solution for 5 minutes, it was immediately mixed with an EGFP mRNA (200 μL) solution. […] An […] nanostructure was prepared as follows by mixing the peptide-molecule conjugate (SAB-gn, n=1 to 6) with the EGFP mRNA. […] The EGFP mRNA and the peptide-molecule conjugate (SAB-gn, n=1 to 6) were mixed at a charge ratio (+/−) of 0, 0.008, 0.016, 0.031, 0.063, 0.125, 0.25, 0.5, 1, 2, 4, 8, 16, 32 or 50.
# After incubating the mixture solution overnight and centrifuging at 16,100 g for 30 minutes, the mixture was resuspended in deionized water. After washing twice, the resulting nanostructure was analyzed by EMSA.
# After incubating the mixture solution overnight and centrifuging at 16,100 g for 30 minutes, the mixture was resuspended in deionized water.
# After heating the mixed solution for 10 minutes at 70° C., it was immediately snap-cooled on ice. RiboRuler Low Range RNA Ladder and RiboRuler High Range RNA Ladder (Thermo Scientific, Waltham, USA) were used on the two lanes on the left side of agarose gel in order to identify the relative locations of the EGFP mRNA bands. The bands of the RiboRuler Low Range RNA Ladder correspond to 1000, 800, 600, 400, 300, 200 and 100 bases, from top to bottom, and the bands of the RiboRuler High Range RNA Ladder correspond to 6000, 4000, 3000, 2000, 1500, 1000, 500 and 200 bases, from top to bottom. Then, the mixtures with charge ratios (+/−) of 0, 0.031, 0.063, 0.125, 0.25, 0.5, 1, 2, 4, 8 and 16 were loaded in sequence.
# After heating the mixed solution for 10 minutes at 70° C., it was immediately snap-cooled on ice. RiboRuler High Range RNA Ladder (Thermo Scientific, Waltham, USA) was used on the left side of agarose gel in order to identify the relative locations of the EGFP mRNA bands. The bands of the RiboRuler High Range RNA Ladder correspond to 6000, 4000, 3000, 2000, 1500, 1000, 500 and 200 bases, from top to bottom. Then, the samples were loaded with charge ratios (+/−) of 00, 0.063, 0.125, 0.25, 0.5, 1, 2, 4, 8, 16 and 32 in sequence.
# [1] = tested on: linear double-stranded DNA (dsDNA) (7528 base pairs); test: EMSA of nanostructure formation with dsDNA; format: binding
# Protocol: as §1
# For this, a pTWIN1 plasmid DNA vector was purchased from New England BioLabs (Ipswich, USA), genetically recombined to express a specific protein (Rev), and then linearized with a BamH1 restriction enzyme purchased from the same company to prepare a linear double-stranded DNA (dsDNA) (7528 base pairs). The peptide-molecule conjugates of Examples 1-3 (SAB1 to SAB3) were dispersed in distilled water to prepare 20 μM aqueous solutions. The SAB1 to SAB3 aqueous solutions (20 μM, 50 μL) were sonicated for at least 5 minutes and then immediately added to the dsDNA solution (200 μL). […] A SAB2/dsDNA nanostructure was prepared by incubating the mixture overnight. Then, after centrifuging at 16,100 g for 30 minutes, the nanostructure was resuspended in deionized water. After washing twice, the nanostructure was analyzed by TEM and EMSA.
# [2] = Coating of gold nanoparticles (TEM); conditions: citrate-modified AuNP aqueous solution
# Protocol: Colloidal gold was prepared by reducing HAuCl4 with sodium citrate. 50 mL of a 0.01% HAuCl4 (0.243 mM) aqueous solution was boiled vigorously while stirring in a round-bottom flask equipped with a reflux condenser. Then, 10 mL of a 0.1% sodium citrate aqueous solution (3.4 mM) was added to the boiling HAuCl4 solution. The color of the solution turned from yellow to deep purple and then to wine red within 3 minutes. The mixture was boiled further for 10 minutes and cooled to room temperature while continuously stirring overnight. The concentration of the colloidal gold was determined with a spectrophotometer.
# It was investigated whether the gold nanoparticles (AuNP) prepared above are coated with the peptide-molecule conjugates prepared in Examples 1-3 (SAB1 to SAB3). First, the peptide-molecule conjugates of Examples 1-3 (SAB1 to SAB3) were dispersed in distilled water to prepare 20 μM aqueous solutions, respectively. After sonicating the SAB1 to SAB3 aqueous solutions (20 μM, 50 μL) for at least 5 minutes, they were immediately added to the AuNP solution (200 μL), respectively. […] After washing twice, the solution was analyzed by CD and TEM.
substance,measurement,setting,value
Ac-(PEG8)-AELAALEAELAALE-(Ahx)2-K-(Ahx)2-KLAALKAKLAALKAG-(PEG8)-NH2 [SAB2],+/− (optimum charge ratio of EGFP mRNA and conjugate showing completely delayed electrophoretic mobility),EGFP mRNA,30
same,nanostructure formation with dsDNA,[1],best result
same,charge ratio (+/−) from which delay of EMSA band was observed,[1]; dsDNA concentration fixed,0.031
same,charge ratio at which SAB2/dsDNA nanostructure was prepared through self-assembly,[1]; dsDNA concentration fixed,0.5
same,dispersibility of coated gold nanoparticles,[2],precipitates were formed due to aggregation of the gold nanoparticles
